Values after ≈ are worked out from the molar mass of the structure shown.
What was measured:
Assay in all cases: ≥ marks a high value that may be exact or a test limit, other limits are often not marked, values filed in µg/mL are converted to µM
[1] = test system: Escherichia coli ATCC 25922
Bacillus subtilis = test system: Bacillus subtilis
[2] = test system: Candida albicans ATCC 2002
[3] = test system: Staphylococcus aureus ATCC 25923
Escherichia coli = test system: Escherichia coli
Bacillus cereus = test system: Bacillus cereus
Staphylococcus aureus = test system: Staphylococcus aureus

| Structure (SMILES) | MIC [1] [µM] | MIC (Bacillus subtilis) [µM] | MIC [2] [µM] | MIC [3] [µM] | MIC (Escherichia coli) [µM] | MIC (Bacillus cereus) [µM] | MIC (Staphylococcus aureus) [µM] |
| --- | --- | --- | --- | --- | --- | --- | --- |
| CC[C@H](C)[C@H](NC(=O)[C@H](C)NC(=O)[C@H](CCCN=C(N)N)NC(=O)[C@H](Cc1ccc(O)cc1)NC(=O)[C@H](CC(C)C)NC(=O)[C@H](CC(N)=O)NC(=O)[C@H](Cc1ccc(O)cc1)NC(=O)CNC(=O)[C@H](C)NC(=O)[C@@H](NC(=O)[C@@H](NC(=O)[C@@H](NC(=O)[C@H](CCCN=C(N)N)NC(=O)[C@@H](NC(=O)[C@@H](NC(=O)[C@@H](NC(=O)[C@@H]1CCCN1C(=O)[C@H](Cc1c[nH]c2ccccc12)NC(=O)[C@H](Cc1ccccc1)NC(=O)[C@H](CCCN=C(N)N)NC(=O)[C@H](CCCCN)NC(=O)[C@@H](NC(=O)[C@@H](N)CCCN=C(N)N)[C@@H](C)CC)C(C)C)C(C)C)[C@@H](C)CC)[C@@H](C)O)C(C)C)C(C)C)C(=O)N[C@@H](CCCCN)C(=O)O [RIKRFWPVVIRTVVAGYNLYRAIK] | 0.803 (≈ 2.34 µg/mL) | 1.61 (≈ 4.69 µg/mL) | 0.201 (≈ 0.586 µg/mL) | 2.41 (≈ 7.03 µg/mL) | – | – | – |
| CC[C@H](C)[C@H](NC(=O)[C@H](CO)NC(=O)[C@H](CCCCN)NC(=O)[C@@H](NC(=O)[C@@H](NC(=O)[C@@H](NC(=O)[C@@H](NC(=O)[C@H](CCCCN)NC(=O)[C@@H](NC(=O)[C@@H](NC(=O)[C@@H](N)CCCCN)[C@@H](C)CC)C(C)C)C(C)C)[C@@H](C)CC)[C@@H](C)O)C(C)C)C(=O)N[C@@H](CO)C(=O)N1CCC[C@H]1C(=O)N[C@@H](C)C(=O)N[C@@H](CO)C(=O)N[C@@H](CC(C)C)C(=O)N[C@H](C(=O)N1CCC[C@H]1C(=O)N[C@H](C(=O)N[C@@H](Cc1ccccc1)C(=O)O)C(C)C)C(C)C [KIVKVITVKSISPASLVPVF] | – | – | – | – | > 60.2 | ≥ 60.2 | – |
| CC(C)C[C@H](NC(=O)[C@H](CCCCN)NC(=O)[C@H](Cc1ccccc1)NC(=O)[C@@H](NC(=O)CNC(=O)CNC(=O)[C@H](CC(C)C)NC(=O)[C@@H](N)Cc1ccccc1)C(C)C)C(=O)N[C@@H](C)C(=O)N[C@@H](CO)C(=O)N[C@@H](CCCCN)C(=O)N[C@H](C(=O)N[C@@H](Cc1ccccc1)C(=O)N1CCC[C@H]1C(=O)N[C@@H](C)C(=O)N[C@H](C(=O)N[C@@H](Cc1ccccc1)C(=O)NCC(=O)N[C@@H](CCCCN)C(=O)N[C@H](C(=O)O)C(C)C)C(C)C)C(C)C [FLGGVFKLASKVFPAVFGKV] | – | – | – | – | 30.3 (≈ 64 µg/mL) | 15.2 (≈ 32 µg/mL) | 30.3 (≈ 64 µg/mL) |
| CC[C@H](C)[C@H](N)C(=O)N[C@@H](CC(N)=O)C(=O)N[C@@H](CO)C(=O)N[C@@H](CC(C)C)C(=O)N[C@@H](CCCCN)C(=O)N[C@@H](CC(C)C)C(=O)NCC(=O)N[C@@H](CCCCN)C(=O)N[C@@H](CCCCN)C(=O)N[C@H](C(=O)N[C@@H](CC(C)C)C(=O)NCC(=O)N[C@@H](C)C(=O)N[C@@H](CC(C)C)C(N)=O)[C@@H](C)CC [INSLKLGKKILGAL] | – | ≥ 100 | – | – | > 100 | – | – |
| CC[C@H](C)[C@H](NC(=O)[C@H](CC(C)C)NC(=O)[C@H](C)NC(=O)[C@H](CC(C)C)NC(=O)[C@H](CC(C)C)NC(=O)CN)C(=O)N[C@@H](CO)C(=O)N[C@@H](Cc1c[nH]c2ccccc12)C(=O)N[C@H](C(=O)N[C@@H](CCCCN)C(=O)N[C@@H](CCCN=C(N)N)C(=O)N[C@@H](CCCCN)C(=O)N[C@@H](CCCN=C(N)N)C(=O)N[C@@H](CCC(N)=O)C(=O)N[C@@H](CCC(N)=O)C(N)=O)[C@@H](C)CC [GLLALISWIKRKRQQ] | – | 1.22 (≈ 2.2 µg/mL) | – | – | 39.1 (≈ 70.8 µg/mL) | – | 0.663 (≈ 1.2 µg/mL) |
| CC(C)C[C@H](NC(=O)[C@H](CCCCN)NC(=O)[C@H](Cc1ccccc1)NC(=O)[C@@H](NC(=O)[C@@H](NC(=O)CNC(=O)[C@H](CC(C)C)NC(=O)[C@@H](N)Cc1ccccc1)C(C)C)C(C)C)C(=O)N[C@@H](C)C(=O)N[C@@H](CO)C(=O)N[C@@H](CCCCN)C(=O)N[C@H](C(=O)N[C@@H](Cc1ccccc1)C(=O)N1CCC[C@H]1C(=O)N[C@@H](C)C(=O)N[C@H](C(=O)N[C@@H](Cc1ccccc1)C(=O)NCC(=O)N[C@@H](CCCCN)C(=O)N[C@H](C(N)=O)C(C)C)C(C)C)C(C)C [FLGVVFKLASKVFPAVFGKV] | – | – | – | – | 29.7 (≈ 64 µg/mL) | 7.43 (≈ 16 µg/mL) | 1.86 (≈ 4 µg/mL) |
| CC(C)C[C@H](NC(=O)[C@@H](N)Cc1ccccc1)C(=O)NCC(=O)N[C@H](C(=O)N[C@H](C(=O)N[C@@H](Cc1ccccc1)C(=O)N[C@@H](CCCCN)C(=O)N[C@@H](CCCCN)C(=O)N[C@@H](C)C(=O)N[C@@H](CO)C(=O)N[C@@H](CCCCN)C(=O)N[C@H](C(=O)N[C@@H](Cc1ccccc1)C(=O)N1CCC[C@H]1C(=O)N[C@@H](CCCCN)C(=O)N[C@H](C(=O)N[C@@H](Cc1ccccc1)C(=O)NCC(=O)N[C@@H](CCCCN)C(=O)N[C@H](C(=O)O)C(C)C)C(C)C)C(C)C)C(C)C)C(C)C [FLGVVFKKASKVFPKVFGKV] | – | – | – | – | 57.5 (≈ 128 µg/mL) | ≥ 57.5 | > 57.5 |
| CC[C@H](C)[C@H](NC(=O)[C@H](CCCN=C(N)N)NC(=O)CNC(=O)[C@@H](NC(=O)[C@H](Cc1ccccc1)NC(=O)[C@@H]1CCCN1C(=O)[C@H](CC(C)C)NC(=O)[C@@H](N)Cc1ccccc1)C(C)C)C(=O)N[C@@H](C)C(=O)N[C@@H](CO)C(=O)N[C@@H](CCCCN)C(=O)N[C@H](C(=O)N[C@H](C(=O)N1CCC[C@H]1C(=O)N[C@@H](CO)C(=O)N[C@H](C(=O)N[C@H](C(=O)NCC(=O)N[C@@H](CCCCN)C(=O)N[C@H](C(=O)O)C(C)C)[C@@H](C)CC)C(C)C)C(C)C)C(C)C [FLPFVGRIASKVVPSVIGKV] | – | – | – | – | > 121 | ≥ 121 | – |
| CC[C@H](C)[C@H](NC(=O)[C@H](CCCCN)NC(=O)[C@H](Cc1ccccc1)NC(=O)[C@@H](NC(=O)[C@H](C)NC(=O)[C@@H]1CCCN1)C(C)C)C(=O)N[C@@H](C)C(=O)N[C@@H](CO)C(=O)N[C@@H](CCCCN)C(=O)N[C@H](C(=O)N[C@H](C(=O)N1CCC[C@H]1C(=O)N[C@@H](CO)C(=O)N[C@H](C(=O)N[C@@H](Cc1ccc(O)cc1)C(=O)N[C@@H](CS)C(=O)N[C@@H](CCCCN)C(=O)N[C@H](C(=O)N[C@@H](CO)C(=O)N[C@@H](CCCN=C(N)N)C(=O)O)C(C)C)C(C)C)C(C)C)C(C)C [PAVFKIASKVVPSVYCKVSR] | – | – | – | – | 58.8 (≈ 128 µg/mL) | ≥ 118 | – |
| CC[C@H](C)[C@H](NC(=O)[C@@H](NC(=O)[C@@H](NC(=O)[C@@H]1CCCN1C(=O)[C@H](Cc1c[nH]c2ccccc12)NC(=O)[C@H](Cc1ccccc1)NC(=O)[C@H](CCCN=C(N)N)NC(=O)[C@H](CCCCN)NC(=O)[C@@H](NC(=O)[C@@H](N)CCCN=C(N)N)[C@@H](C)CC)C(C)C)C(C)C)C(=O)N[C@@H](CCCN=C(N)N)C(=O)N[C@H](C(=O)N[C@H](C(=O)N[C@H](C(=O)N[C@@H](C)C(=O)NCC(=O)N[C@@H](Cc1ccc(O)cc1)C(=O)N[C@@H](CC(N)=O)C(=O)N[C@@H](CC(C)C)C(=O)N[C@@H](Cc1ccc(O)cc1)C(=O)N[C@@H](CCCN=C(N)N)C(=O)O)C(C)C)C(C)C)[C@@H](C)O [RIKRFWPVVIRTVVAGYNLYR] | 3.6 (≈ 9.38 µg/mL) | – | 3.6 (≈ 9.38 µg/mL) | – | – | – | – |
| CC[C@H](C)[C@H](NC(=O)[C@H](CC(C)C)NC(=O)[C@H](C)NC(=O)[C@@H]1CCCN1C(=O)[C@H](CC(C)C)NC(=O)CN)C(=O)N[C@@H](CC(C)C)C(=O)N[C@@H](Cc1c[nH]c2ccccc12)C(=O)N[C@H](C(=O)N[C@@H](CCCCN)C(=O)N[C@@H](CCCN=C(N)N)C(=O)N[C@@H](CCCCN)C(=O)N[C@@H](CCCN=C(N)N)C(=O)N[C@@H](CCC(N)=O)C(=O)N[C@@H](CCC(N)=O)C(N)=O)[C@@H](C)CC [GLPALILWIKRKRQQ] | – | 0.352 (≈ 0.64 µg/mL) | – | – | 44.9 (≈ 81.7 µg/mL) | – | 0.769 (≈ 1.4 µg/mL) |

From DBAASP
